In paper PMC9137622, “OPDAylation of Thiols of the Redox Regulatory Network In Vitro” (Antioxidants, 2022):

Key:
GRX-C2 = target: T1, GRX-C2 (Arabidopsis thaliana, UniProt Q9FNE2); experiment: HED assay, NADPH oxidation at […] nm; assay type: biochemical; details: 2 mM GSH, 0.7 mM HED, 1 µM GR, 0.1 µM GRX, pH 7.5, RT
T1 construct: gene GRXC2

GAPC2 = target: T2, GAPC2 (Arabidopsis thaliana, UniProt Q9FX54); experiment: NADH consumption at […] nm, PGK-coupled; assay type: biochemical; details: 8 mM 3-PGA, 4 mM ATP, 90 nM PGK, pH 7.8, RT
T2 construct: His10-tagged, E. coli, Ni-NTA
T2 sequence (Q9FX54 whole entry): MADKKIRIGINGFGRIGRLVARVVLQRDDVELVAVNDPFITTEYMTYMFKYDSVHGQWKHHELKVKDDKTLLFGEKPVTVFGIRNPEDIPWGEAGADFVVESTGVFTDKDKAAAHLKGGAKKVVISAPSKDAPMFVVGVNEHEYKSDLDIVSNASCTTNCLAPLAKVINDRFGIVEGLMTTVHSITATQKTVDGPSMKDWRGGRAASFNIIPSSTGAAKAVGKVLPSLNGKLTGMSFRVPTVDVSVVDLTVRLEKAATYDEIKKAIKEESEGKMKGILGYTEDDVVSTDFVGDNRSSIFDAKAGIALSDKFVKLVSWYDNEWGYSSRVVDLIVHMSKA

TRX-m4 [1] = target: T3, TRX-m4 (Arabidopsis thaliana, UniProt Q9SEU6); experiment: HPLC depletion of free OPDA, mPEG-maleimide shift; assay type: binding; details: covalent; 200 µM OPDA, 50 or 100 µM reduced protein, pH 7.2, at least 2 h, RT
T3 construct: gene At3g15360; His-tagged, E. coli, Ni-NTA
T3 sequence (Q9SEU6 83-193): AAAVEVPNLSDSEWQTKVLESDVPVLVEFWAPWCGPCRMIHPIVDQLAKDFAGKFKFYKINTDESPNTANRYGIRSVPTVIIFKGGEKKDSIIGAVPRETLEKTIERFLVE

PRXIIB = target: T4, PRXIIB (Arabidopsis thaliana, UniProt Q9XEX2); experiment: coupled H2O2 reduction (GR/GSH/GRXC2), NADPH oxidation at […] nm; assay type: biochemical; details: 20 µM reduced PRXIIB preincubated with 150 µM OPDA 1 h, then 3 µM in assay, pH 7.5; weak effect
T4 sequence (Q9XEX2 1-162): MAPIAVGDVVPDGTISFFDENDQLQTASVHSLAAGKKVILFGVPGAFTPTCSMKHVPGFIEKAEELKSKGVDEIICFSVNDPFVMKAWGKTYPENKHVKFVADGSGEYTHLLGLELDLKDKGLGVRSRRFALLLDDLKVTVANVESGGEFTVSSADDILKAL

TRX-h5 [2] = target: T5, TRX-h5 (Arabidopsis thaliana, UniProt Q39241); experiment: HPLC depletion of free OPDA, mPEG-maleimide shift; assay type: binding; details: covalent; 200 µM OPDA, 50 or 100 µM reduced protein, pH 7.2, at least 2 h, RT
T5 construct: gene TRX5
T5 sequence (Q39241 1-118 limits assumed): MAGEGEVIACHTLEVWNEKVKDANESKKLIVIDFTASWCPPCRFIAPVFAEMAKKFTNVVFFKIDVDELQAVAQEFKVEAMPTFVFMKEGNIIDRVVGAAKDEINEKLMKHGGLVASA

TRX-f1 = target: T6, TRX-f1 (Arabidopsis thaliana, UniProt Q9XFH8); experiment: HPLC depletion of free OPDA, mPEG-maleimide shift; assay type: binding; details: covalent; 200 µM OPDA, 50 or 100 µM reduced protein, pH 7.2, at least 2 h, RT
T6 construct: gene At3g02730; His-tagged, E. coli, Ni-NTA
T6 sequence (Q9XFH8 58-178): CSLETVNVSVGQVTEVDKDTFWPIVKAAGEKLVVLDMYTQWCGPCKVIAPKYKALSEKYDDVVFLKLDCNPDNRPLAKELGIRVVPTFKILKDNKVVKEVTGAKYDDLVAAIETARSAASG

TRX-h3 = target: T7, TRX-h3 (Arabidopsis thaliana, UniProt Q42403); experiment: coupled GPXL8 H2O2 reduction, NADPH oxidation at […] nm; assay type: biochemical; details: covalent; 20 µM reduced protein preincubated with 150 µM OPDA 1 h, then 0.25 µM in NTRA/GPXL8 assay, pH 7.5
T7 construct: gene TRX3
T7 sequence (Q42403 1-118 limits assumed): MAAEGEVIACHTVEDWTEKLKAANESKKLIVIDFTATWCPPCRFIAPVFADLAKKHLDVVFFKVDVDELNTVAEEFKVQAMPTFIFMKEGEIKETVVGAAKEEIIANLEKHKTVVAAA

TRX-m4 [3] = target: T3, TRX-m4; experiment: as above; assay type: biochemical; details: covalent; 20 µM reduced protein preincubated with 150 µM OPDA 1 h, then 5 µM in NTRA/GPXL8 assay, pH 7.5
TRX-h5 [4] = target: T5, TRX-h5; experiment: as above; assay type: biochemical; details: covalent; 20 µM reduced protein preincubated with 150 µM OPDA 1 h, then 0.25 µM in NTRA/GPXL8 assay, pH 7.5

T1 sequence (Q9FNE2 whole entry): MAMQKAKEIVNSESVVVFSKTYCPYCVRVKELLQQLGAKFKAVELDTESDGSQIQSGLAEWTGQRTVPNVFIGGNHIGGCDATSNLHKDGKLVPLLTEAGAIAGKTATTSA

SMILES: OCCSSCCO [HED, hydroxyethyldisulfide]
- HED assay, NADPH oxidation at 340 nm (GRX-C2): HED assay to determine GRX-dependent reduction activity

SMILES: NC(=O)C1=CN([C@@H]2O[C@H](COP(=O)(O)OP(=O)(O)OC[C@H]3O[C@@H](n4cnc5c(N)ncnc54)[C@H](O)[C@@H]3O)[C@@H](O)[C@H]2O)C=CC1 [NADH]
- NADH consumption at 340 nm, PGK-coupled (GAPC2): coupled activity of phosphoglycerate kinase and GAPDH was measured as consumption of NADH

SMILES: CC/C=C\C[C@@H]1C(=O)C=C[C@@H]1CCCCCCCC(=O)O [OPDA, cis-(+)-12-oxophytodienoic acid]
- HPLC depletion of free OPDA, mPEG-maleimide shift (TRX-m4 [1]): three thiols in the case of TRX-f1 and TRX-m4
- inhibition (PRXIIB): OPDA seems to act directly on PRXIIB at a low level
- HPLC depletion of free OPDA, mPEG-maleimide shift (TRX-h5 [2]): two thiols reacted with OPDA in the case of TRX-h3 and TRX-h5
- HPLC depletion of free OPDA, mPEG-maleimide shift (TRX-f1): three thiols in the case of TRX-f1 and TRX-m4
- inhibition (TRX-h3): ~ 80%
- inhibition (TRX-m4 [3]): ~ 60%
- inhibition (TRX-h5 [4]): ~ 80%
